SMILES strings stand for the structures.

The values that follow come from EP1147102B1, “HETEROARYL ACETYLENIC SULFONAMIDE AND PHOSPHINIC ACID AMIDE HYDROXAMIC ACID TACE INHIBITORS” (Wyeth Holdings Corporation, priority 1999, dated 2000).

The test relates to THP-1 cells. In words: Human monocytic THP-1 cell differentiation assay for soluble proteins (THP soluble protein assay). Particulars: LPS-stimulated THP-1 cells. The test is classed as cell-based. An excerpt: Mitogenic stimulation of THP-1 cells cause differentiation into macrophage like cells with concomitant secretion of tumor necrosis factor (TNF-α) and TNF receptor (TNF-R p75/80 and TNF-R p55/60) and Interleukin-8 (IL-8), among other proteins. In addition, non-stimulated THP-1 cells shed both the p75/80 and the p55/60 receptors over time. The release of membrane bound TNF-α and possibly TNF-R p75/80 and TNF-R p55/60, but not IL-8, is mediated by an enzyme called TNF-α converting enzyme or TACE.
THP-1 cells (from ATCC) are a human monocytic cell line which were obtained from the peripheral blood of a person with acute monocytic leukemia. […]
To perform an assay, the THP-1 cells are co-incubated in a 24 well plate with […] of a 24 mg/ml stock of Lipopolysacharide (LPS) (Calbiochem Lot# B13189) at 37°C in 5% CO2 at a concentration of 1.091 x 10^6 cells/ml (1.1 ml/well) for a total of 24 hours. […] Compounds can be evaluated for their effect on basal (non-stimulated) shedding of the receptors by replacing the LPS with […] of THP-1 media. […]
In addition, at the 24 hours timepoint, and the cells for each treatment group are collected by resuspension in 500 µl/well of THP-1 media and transferred into a FACS tube. […] The samples are run on a Becton Dickinson FaxCaliber FLOW cytometry machine and the amount of dye taken up by each cell is measured in the high red wavelength (FL3). […]

A word on the inhibition: it is the share of the control response that was lost under treatment. Read a high inhibition as a response far below the control. `CC#CCOc1ccc(S(=O)(=O)N(C)c2c(C(=O)NO)cc(OC)nc2OC)cc1` [Example 33, 3-[Methyl-(4-but-2-ynyloxy-benzenesulfonyl)-amino]-N-hydroxy-2,6-dimethoxyisonicotinamide] returned an inhibition at 3 µM of 31%.
